Assay: xn = mol fraction of the nth substance listed

[Cl-].[Cl-].[Cl-].[Cl-].[Ge+4] + COc1ccccc1
viscosity [mPa·s], 101 kPa
Conditions	x2 = 0.2185	x2 = 0.3554	x2 = 0.4923	x2 = 0.6922	x2 = 0.8481
293.15 K	0.65	0.688	0.734	0.836	0.963
303.15 K	0.591	0.621	0.654	0.732	0.836
313.15 K	0.535	0.555	0.598	0.654	0.731

c1ccc(Nc2ccccc2)cc1 + Oc1ccccc1
viscosity [mPa·s], 101 kPa
Conditions	303.15 K	313.15 K	323.1 K
x1 = 0.21	–	–	3.825
x1 = 0.444	–	–	4.362
x1 = 0.683	–	–	5.01
x2 = 0.133	12.57	7.95	–
x2 = 0.2435	11.65	7.43	–
x2 = 0.3531	10.72	6.93	–
x2 = 0.4454	10.03	6.52	–
x2 = 0.5306	9.47	6.2	–
x2 = 0.6104	8.98	5.91	–
x2 = 0.6735	8.61	5.68	–
x2 = 0.7266	8.28	5.51	–
x2 = 0.7989	7.91	5.28	–
x2 = 0.8548	7.65	5.13	–
x2 = 0.908	7.42	4.98	–
x2 = 0.9541	7.255	4.845	–

OCCOCCO + C[N+](C)(C)CCO.[Cl-]
viscosity [mPa·s], 101 kPa
Conditions	293.15 K	298.15 K	303.15 K	313.15 K	323.15 K
x1 = 0.667	52.49	–	50.39	35.69	25.79
x2 = 0.25	–	55.1	–	–	–

CCCCCCCCCCCCO + C=CC(=O)OC
viscosity [mPa·s], 101.3 kPa
Conditions	x2 = 0.1127	x2 = 0.3078	x2 = 0.3842	x2 = 0.5147	x2 = 0.6206	x2 = 0.7884	x2 = 0.8506	x2 = 0.9093	x2 = 0.9554	x2 = 0.9794
298.15 K	11.57	5.722	4.4	2.703	1.891	0.992	0.785	0.629	0.53	0.484
308.15 K	8.309	4.391	3.385	2.157	1.515	0.833	0.668	0.549	0.473	0.438

C=C(C)C(=O)OCCCCCCC + CCCCCC
viscosity [mPa·s], 101 kPa
Conditions	x1 = 0.002	x1 = 0.005	x1 = 0.01	x1 = 0.02
303 K	0.2814	0.2918	0.2946	0.3052
313 K	0.2567	0.2692	0.2692	0.2801
323 K	0.2346	0.2442	0.247	0.2568

CC(O)C(C)O (configuration not stated) + O=C1CCCN1
Conditions	viscosity [mPa·s]
308.15 K, 101 kPa, x2 = 0.5898	14.65

O=Cc1ccccc1 + CCc1ccccc1
viscosity [mPa·s], 101 kPa
Conditions	x1 = 0.1197	x1 = 0.2343	x1 = 0.3441	x1 = 0.4494	x1 = 0.5504	x1 = 0.6474	x1 = 0.7407	x1 = 0.8304	x1 = 0.9168
303.15 K	0.6517	0.704	0.7588	0.8174	0.882	0.9577	1.043	1.13	1.203
308.15 K	0.6199	0.6713	0.7283	0.7882	0.8554	0.93	1.014	1.102	1.181
313.15 K	0.584	0.6318	0.691	0.7573	0.8273	0.9007	0.9837	1.07	1.158

OCCOCCO + COCCO
viscosity [mPa·s], 101 kPa
Conditions	293.15 K	298.15 K	303.15 K
x2 = 0.063	32.91	25.61	18.57
x2 = 0.1046	29.55	23.08	16.7
x2 = 0.1548	25.97	20.37	14.71
x2 = 0.1955	23.41	18.4	13.26
x2 = 0.2599	19.9	15.69	11.28
x2 = 0.3032	17.82	14.1	10.11
x2 = 0.3425	16.13	12.78	9.154
x2 = 0.3978	14.02	11.13	7.954
x2 = 0.4463	12.38	9.856	7.03
x2 = 0.4981	10.82	8.633	6.143
x2 = 0.5488	9.459	7.565	5.383
x2 = 0.5957	8.321	6.686	4.755
x2 = 0.6523	7.085	5.718	4.079
x2 = 0.6987	6.176	5.003	3.59
x2 = 0.7511	5.269	4.232	3.094
x2 = 0.8021	4.393	3.612	2.67
x2 = 0.8546	3.602	2.998	2.276
x2 = 0.8964	3.013	2.551	1.995
x2 = 0.9423	2.414	2.084	1.714

CCCCCCCCCCCCCCCCCC(=O)OC + CCCCCC
viscosity [mPa·s], 101 kPa
Conditions	x1 = 0.05	x1 = 0.1	x1 = 0.15	x1 = 0.2	x1 = 0.25	x1 = 0.3
298 K	0.48	0.67	0.85	1.08	1.22	1.41
303 K	0.46	0.63	0.79	0.99	1.13	1.3
308 K	0.44	0.59	0.74	0.92	1.05	1.21
313 K	0.42	0.55	0.69	0.85	0.98	1.12

CC(O)C(C)O (configuration not stated) + CN1CCCC1=O
308.15 K, 101 kPa
Conditions	viscosity [mPa·s]
x1 = 0.0282	1.924
x1 = 0.0534	2.003
x1 = 0.1001	2.405
x1 = 0.1968	2.91
x1 = 0.295	3.344
x1 = 0.3939	4.159
x1 = 0.4746	5.033
x1 = 0.5881	7.256
x1 = 0.6924	8.758
x1 = 0.7916	13.58
x1 = 0.8948	23.29
x1 = 0.9431	32.45
x1 = 0.973	39.91

Cc1ccc(C)cc1 + CCC(C)O
308.15 K, 101 kPa
Conditions	viscosity [mPa·s]
x2 = 0.0429	0.553
x2 = 0.1028	0.562
x2 = 0.2013	0.591
x2 = 0.3192	0.645
x2 = 0.4044	0.721
x2 = 0.5085	0.792
x2 = 0.6631	0.932
x2 = 0.7494	1.111
x2 = 0.8285	1.32
x2 = 0.9012	1.61
x2 = 0.9684	1.782

From the CheMixHub viscosity set
